Reference: patent publication US11311012B1, “Bacterial control in fermentation systems” (Clean Chemistry, Inc., priority 2017, dated 2022)
Several values for one entry are separate records, joined by “and”; a condition that tells them apart may be missing. Identical values can stand only once.

How the values were obtained:
yeast cells = assay type: cell-based, Saccharomyes cerevisiae and Schizosaccharomyces pombe
SRB = assay type: cell-based, bacteria
APB = assay type: cell-based, bacteria
[1] = tested on: bacteria population in stationary phase; assay type: cell-based
[2] = ORP of oxidant solutions at pH 7; assay type: physicochemical; details: 29 mM

[O][Cl+][O-] [Chlorine Dioxide, chlorine dioxide]
Yeast activity vs untreated mash (yeast cells): greater yeast activity

CCCCCCCCCCCC[N+](C)(C)CCCCCCCCCCCC.[Br-] [DDAB, didodecyldimethylammonium bromide]
SRB (SRB): 5 bottles and 6 bottles | APB (APB): 3 bottles and 4 bottles | ATP [1]: 185 pg/mL and 291 pg/mL | Effectiveness against bacteria in the stationary phase compared with peracetate oxidant [1]: less effective

OO [hydrogen peroxide]
ORP [2]: about 0.5 V (vs SHE)

OCl [hypochlorous acid]
ORP [2]: over 1.1 V (vs SHE)
